Reference: PubChem BioAssay AID2060508 (Molecular Pharmacology Branch, DTP, NCI, 2025)
pIC50: −log10 of the molar value.

Test system: 454973-116-R2-J3-PDC spheroids, viability, % test/control
Assay: Anticancer human tumor 454973-116-R2-J3-PDC patient-derived pancreatic carcinoma cell line growth inhibition [GQUAD]
Conditions: spheroids with HUVEC and MSC; for pIC50: curve of first compound; for viability, T/C: stronger effect = lower value
Outline: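 Viability of tumor cells grown as complex spheroids with endothelial and stromal cells, exposed to drug combinations. Top concentration at or near clinical Cmax (else 10 microM), diluted in half-log increments.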

[1] = second compound 0.0316 µM, first compound 0.0316 µM
[2] = second compound 0.0316 µM, first compound 0.1 µM
[3] = second compound 0.0316 µM, first compound 0.316 µM
[4] = second compound 0.0316 µM, first compound 1 µM
[5] = second compound 0.0316 µM, first compound 3.16 µM
[6] = second compound 0.0316 µM, first compound 10 µM
[7] = second compound 0.1 µM, first compound 0.0316 µM
[8] = second compound 0.1 µM, first compound 0.1 µM
[9] = second compound 0.1 µM, first compound 0.316 µM
[10] = second compound 0.1 µM, first compound 1 µM
[11] = second compound 0.1 µM, first compound 3.16 µM
[12] = second compound 0.1 µM, first compound 10 µM
[13] = second compound 0.316 µM, first compound 0.0316 µM
[14] = second compound 0.316 µM, first compound 0.1 µM
[15] = second compound 0.316 µM, first compound 0.316 µM
[16] = second compound 0.316 µM, first compound 1 µM
[17] = second compound 0.316 µM, first compound 3.16 µM
[18] = second compound 0.316 µM, first compound 10 µM
[19] = second compound 1 µM, first compound 0.0316 µM
[20] = second compound 1 µM, first compound 0.1 µM
[21] = second compound 1 µM, first compound 0.316 µM
[22] = second compound 1 µM, first compound 1 µM
[23] = second compound 1 µM, first compound 3.16 µM
[24] = second compound 1 µM, first compound 10 µM
[25] = second compound 3.16 µM, first compound 0.0316 µM
[26] = second compound 3.16 µM, first compound 0.1 µM
[27] = second compound 3.16 µM, first compound 0.316 µM
[28] = second compound 3.16 µM, first compound 1 µM
[29] = second compound 3.16 µM, first compound 3.16 µM
[30] = second compound 3.16 µM, first compound 10 µM
[31] = second compound 10 µM, first compound 0.0316 µM
[32] = second compound 10 µM, first compound 0.1 µM
[33] = second compound 10 µM, first compound 0.316 µM
[34] = second compound 10 µM, first compound 1 µM
[35] = second compound 10 µM, first compound 3.16 µM
[36] = second compound 10 µM, first compound 10 µM
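Also: spheroids exposed to compounds for seven days.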
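For viability, T/C in this document: 100% = DMSO vehicle control viability.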

SMILES: C=CCn1c(=O)c2cnc(Nc3ccc(N4CCN(C)CC4)cc3)nc2n1-c1cccc(C(C)(C)O)n1 + Cc1[nH]c2ccc(F)cc2c1-c1nc2c3cccnc3c3ncccc3c2[nH]1
- pIC50 (second compound 0.0316 µM): 6.44
- pIC50 (second compound 0.1 µM): 6.32
- pIC50 (second compound 0.316 µM): 6.40
- pIC50 (second compound 1 µM): 6.36
- pIC50 (second compound 3.16 µM): 6.47
- pIC50 (second compound 10 µM): 6.47
- viability, T/C [1]: 124%
- viability, T/C [2]: 92.8%
- viability, T/C [3]: 60.4%
- viability, T/C [4]: 15.3%
- viability, T/C [5]: 7.69%
- viability, T/C [6]: 10.2%
- viability, T/C [7]: 101%
- viability, T/C [8]: 95.5%
- viability, T/C [9]: 69.8%
- viability, T/C [10]: 15%
- viability, T/C [11]: 6.68%
- viability, T/C [12]: 11.6%
- viability, T/C [13]: 105%
- viability, T/C [14]: 99%
- viability, T/C [15]: 58.7%
- viability, T/C [16]: 16.7%
- viability, T/C [17]: 7.33%
- viability, T/C [18]: 12.1%
- viability, T/C [19]: 111%
- viability, T/C [20]: 96.2%
- viability, T/C [21]: 63.4%
- viability, T/C [22]: 18.3%
- viability, T/C [23]: 6.95%
- viability, T/C [24]: 12.4%
- viability, T/C [25]: 101%
- viability, T/C [26]: 98.6%
- viability, T/C [27]: 51.8%
- viability, T/C [28]: 14.2%
- viability, T/C [29]: 7.78%
- viability, T/C [30]: 12.1%
- viability, T/C [31]: 100%
- viability, T/C [32]: 78.4%
- viability, T/C [33]: 57.6%
- viability, T/C [34]: 14.1%
- viability, T/C [35]: 7.95%
- viability, T/C [36]: 12.3%

SMILES: CC(C)(O)C1CCC(Nc2ccc3ncc(-c4cccc(C(F)(F)F)c4)n3n2)CC1 (stereo unspecified) + Cc1[nH]c2ccc(F)cc2c1-c1nc2c3cccnc3c3ncccc3c2[nH]1
- pIC50 (second compound 0.0316 µM): 5.73
- pIC50 (second compound 0.1 µM): 5.73
- pIC50 (second compound 0.316 µM): 5.74
- pIC50 (second compound 1 µM): 5.80
- pIC50 (second compound 3.16 µM): 5.79
- pIC50 (second compound 10 µM): 5.86
- viability, T/C [1]: 112%
- viability, T/C [2]: 97.4%
- viability, T/C [3]: 96.6%
- viability, T/C [4]: 76.8%
- viability, T/C [5]: 21.8%
- viability, T/C [6]: 32.2%
- viability, T/C [7]: 108%
- viability, T/C [8]: 100%
- viability, T/C [9]: 92.1%
- viability, T/C [10]: 78.1%
- viability, T/C [11]: 23.1%
- viability, T/C [12]: 29.8%
- viability, T/C [13]: 102%
- viability, T/C [14]: 98.1%
- viability, T/C [15]: 105%
- viability, T/C [16]: 78.4%
- viability, T/C [17]: 18.3%
- viability, T/C [18]: 31.6%
- viability, T/C [19]: 98.2%
- viability, T/C [20]: 95.6%
- viability, T/C [21]: 95.5%
- viability, T/C [22]: 67.1%
- viability, T/C [23]: 23.8%
- viability, T/C [24]: 22.8%
- viability, T/C [25]: 95.1%
- viability, T/C [26]: 98.8%
- viability, T/C [27]: 90.9%
- viability, T/C [28]: 67.3%
- viability, T/C [29]: 21.4%
- viability, T/C [30]: 31.4%
- viability, T/C [31]: 87.6%
- viability, T/C [32]: 81.3%
- viability, T/C [33]: 89%
- viability, T/C [34]: 59.6%
- viability, T/C [35]: 21.7%
- viability, T/C [36]: 30.7%

SMILES: COc1ncnc(C2CC2)c1-c1ncc2cnn(Cc3ccc(-c4nc(C(F)(F)F)cn4C(C)C)cc3)c2n1 + Cc1[nH]c2ccc(F)cc2c1-c1nc2c3cccnc3c3ncccc3c2[nH]1
- pIC50 (second compound 0.0316 µM): < 5.00
- pIC50 (second compound 0.1 µM): < 5.00
- pIC50 (second compound 0.316 µM): < 5.00
- pIC50 (second compound 1 µM): < 5.00
- pIC50 (second compound 3.16 µM): < 5.00
- pIC50 (second compound 10 µM): < 5.00
- viability, T/C [1]: 112%
- viability, T/C [2]: 100%
- viability, T/C [3]: 110%
- viability, T/C [4]: 110%
- viability, T/C [5]: 96%
- viability, T/C [6]: 102%
- viability, T/C [7]: 126%
- viability, T/C [8]: 102%
- viability, T/C [9]: 107%
- viability, T/C [10]: 105%
- viability, T/C [11]: 92.9%
- viability, T/C [12]: 100%
- viability, T/C [13]: 109%
- viability, T/C [14]: 111%
- viability, T/C [15]: 106%
- viability, T/C [16]: 120%
- viability, T/C [17]: 105%
- viability, T/C [18]: 98.6%
- viability, T/C [19]: 103%
- viability, T/C [20]: 99.3%
- viability, T/C [21]: 105%
- viability, T/C [22]: 106%
- viability, T/C [23]: 92.3%
- viability, T/C [24]: 98.9%
- viability, T/C [25]: 99.2%
- viability, T/C [26]: 97.3%
- viability, T/C [27]: 99.4%
- viability, T/C [28]: 91.5%
- viability, T/C [29]: 96.9%
- viability, T/C [30]: 89.8%
- viability, T/C [31]: 102%
- viability, T/C [32]: 92.9%
- viability, T/C [33]: 96.7%
- viability, T/C [34]: 86.8%
- viability, T/C [35]: 83.5%
- viability, T/C [36]: 95.1%
